The values that follow come from patent US8354400B2, “Benzoxazole compounds and methods of use” (Eisai R&D Co., Ltd., priority 2008, dated 2013).

Assay [1] has as its system dissociated mouse splenocytes. In words: Spleen CellTiter-Glo viability assay. Particulars: Splenocyte, 72 hours, viability (ATP). In kind it is cell-based. How it is done: (3) Spleen CT Glo Assay: To determine if compounds had adverse effects on living cells, dissociated mouse splenocytes were incubated with some of the compounds for 72 hours. At the end of the incubation Celliter-Glo™ reagent (Promega Corporation, Madison, Wis.) was added and luminescence was read per manufacturer's instructions. This reagent measures ATP as an indication of cell metabolism. Dead cells will not produce signal. IC50 is defined as the concentration of compound that suppresses viability to 50% of that observed in the absence of compound. The few compounds that measurably affected viability did so at concentrations far above those that affected cytokine release in response to TLR9 stimulation.

Assay [2] deals with T1, human TLR9 (Homo sapiens, UniProt Q9NR96).
T1 construct: expressed in transfected cells; host or cells: HEK293 (ATCC No. CRP-1573 [sic])
T1 sequence (Q9NR96 26-1032): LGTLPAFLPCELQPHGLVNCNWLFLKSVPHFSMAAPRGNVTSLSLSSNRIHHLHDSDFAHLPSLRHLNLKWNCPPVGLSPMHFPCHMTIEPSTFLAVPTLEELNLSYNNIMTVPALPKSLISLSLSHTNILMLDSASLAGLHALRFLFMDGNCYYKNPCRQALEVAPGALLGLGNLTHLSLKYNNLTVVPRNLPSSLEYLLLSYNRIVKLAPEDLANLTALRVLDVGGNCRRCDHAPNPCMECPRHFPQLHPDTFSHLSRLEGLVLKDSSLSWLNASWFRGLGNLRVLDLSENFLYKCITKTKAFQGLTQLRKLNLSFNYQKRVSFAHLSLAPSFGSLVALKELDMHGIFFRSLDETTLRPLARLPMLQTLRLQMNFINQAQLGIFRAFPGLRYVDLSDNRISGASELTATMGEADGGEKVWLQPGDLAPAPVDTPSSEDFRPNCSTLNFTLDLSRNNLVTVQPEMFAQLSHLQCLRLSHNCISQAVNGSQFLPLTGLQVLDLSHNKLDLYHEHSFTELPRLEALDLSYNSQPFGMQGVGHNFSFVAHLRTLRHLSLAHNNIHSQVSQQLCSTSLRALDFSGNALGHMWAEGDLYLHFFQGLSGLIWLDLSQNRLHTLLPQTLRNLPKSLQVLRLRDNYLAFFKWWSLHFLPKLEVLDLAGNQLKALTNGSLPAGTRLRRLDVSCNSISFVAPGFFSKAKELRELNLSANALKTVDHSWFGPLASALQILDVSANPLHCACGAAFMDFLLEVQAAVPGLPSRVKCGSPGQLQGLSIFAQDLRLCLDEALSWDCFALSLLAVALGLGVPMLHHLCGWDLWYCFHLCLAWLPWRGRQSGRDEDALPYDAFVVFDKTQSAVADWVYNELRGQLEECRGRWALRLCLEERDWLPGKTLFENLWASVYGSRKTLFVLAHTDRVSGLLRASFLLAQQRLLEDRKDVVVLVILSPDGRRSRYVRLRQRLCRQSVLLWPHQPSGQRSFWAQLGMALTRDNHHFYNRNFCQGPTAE
Nature of the assay: Primary assay: HEK/TLR9 activation (NF-kB luciferase reporter, Oligo CpG 2006 stimulation). It counts as cell-based. Particulars: HEK293 transfected with human TLR9 and NF-kB luciferase; compound 30 min before Oligo CpG 2006; overnight; read-out: HEK/TLR9 IC50. An excerpt: A. Primary Assay. The primary assay involved transfecting human embryonic kidney epithelial (HEK) cells with TLR9. More specifically, HEK293 […] cells (ATCC No. CRP-1573, American Type Culture Collection, Manassas, Va.) were transfected with pcDNA3.1D/V5-His-TOPO® plasmid (Invitrogen, Carlsbad, Calif.) encoding human TLR9 (directly inserted as a Tag polymerase-amplified PCR product) and firefly luciferase under the control of three NF-kB binding sites contained in the E-selectin-1 promoter, which was cloned into a pGL3-Enhancer Vector (Promega Corp, Madison, Wis.). Each compound was added to cells 30 min. before stimulation with Oligo CpG 2006, a synthetic phosphorothioate oligonucleotide (Hartmann et al., J Immunol. 164:1617-24 (2000)), with nucleotide sequence 5′-TCGTCGTTTTGTCGTTTTGTCGTT-3′ (SEQ ID NO:1). The cells were incubated overnight at 37° C. The luciferase substrate Steady-Glo® (Promega) was added to the wells, and luminescence was measured to determine the extent of TLR9-driven gene activation. The luminescence data was used to calculate an IC50 for each sample. The IC50 is defined as the concentration of compound that suppresses the luminescence to 50% of that observed in the absence of compound, in other words, with full stimulation.

Where only a bound is given, the exact number is not on record here.

With `CN(C)CCN(C)CCCOc1ccc(-c2nc3ccc(OCCCN(C)CCN(C)C)cc3o2)cc1` [Compound 22], the values for the IC50 in assay [1] and in assay [2] were 7.11 µM and 0.0087 µM, respectively.

Take `CN1CCCN(CCCOc2ccc(-c3nc4ccc(OCCCN5CCCN(C)CC5)cc4o3)cc2)CC1` [Compound 14]: the IC50 in assay [1] is greater than 10 µM; in assay [2], 0.0056 µM.

As to `c1cc(-c2nc3ccc(OCCCN4CCC(N5CCCC5)CC4)cc3o2)ccc1OCCCN1CCC(N2CCCC2)CC1` [Compound 20], the IC50 is greater than 10 µM in assay [1] and 0.0125 µM in assay [2].

Turning to `CN(C)[C@@H]1CCN(CCCOc2ccc(-c3nc4ccc(OCCCN5CC[C@@H](N(C)C)C5)cc4o3)cc2)C1` [Compound 16], the IC50 is greater than 10 µM in assay [1] and 0.0055 µM in assay [2].

On to `CN1CCN(c2ccc(CNCCCOc3ccc(-c4nc5ccc(OCCCNCc6ccc(N7CCN(C)CC7)cc6)cc5o4)cc3)cc2)CC1` [Compound 11], for which the IC50 in assay [1] is 10 µM; in assay [2], 0.0048 µM.

As to `CCN(CC)CCNCCCOc1ccc(-c2nc3ccc(OCCCNCCN(CC)CC)cc3o2)cc1` [Compound 12], the IC50 in assay [1] is greater than 10 µM; in assay [2], 0.0058 µM.

With `CCN(CC)CCN(C)CCCOc1ccc(-c2nc3ccc(OCCCN(C)CCN(CC)CC)cc3o2)cc1` [Compound 31], the figures for the IC50 in assay [1] and in assay [2] were greater than 10 µM and 0.0072 µM, respectively.

For the molecule `CN(C)CCCOc1ccc(-c2nc3ccc(OCCCN(C)C)cc3o2)cc1` [Compound 2], the figures for the IC50 in assay [1] and in assay [2] were greater than 10 µM and 0.0154 µM, respectively.

In the case of `c1cc(CN2CCOCC2)ccc1CNCCCOc1ccc(-c2nc3ccc(OCCCNCc4ccc(CN5CCOCC5)cc4)cc3o2)cc1` [Compound 13], the IC50 in assay [1] was found to be 7.07 µM; in assay [2] it was 0.0071 µM.

Regarding `c1cc(-c2nc3ccc(OCCCN4CCCCC4)cc3o2)ccc1OCCCN1CCCCC1` [Compound 30], the IC50 in assay [1] was greater than 10 µM; in assay [2], 0.0121 µM.

For `c1cc(-c2nc3ccc(OCCCN4CCCC4)cc3o2)ccc1OCCCN1CCCC1` [Compound 23], the IC50 was greater than 10 µM in assay [1] and 0.0111 µM in assay [2].

Consider `CN(C)CCCN(C)CCCOc1ccc(-c2nc3ccc(OCCCN(C)CCCN(C)C)cc3o2)cc1` [Compound 27], for which the IC50 was found to be 8.96 µM in assay [1] and 0.0034 µM in assay [2].
